According to patent US11045472B2, “Quinazoline-pyridine derivatives for the treatment of cancer-related disorders” (ARCUS BIOSCIENCES, INC., priority 2017, dated 2021):

Legend:
Human A2BR = target: T1, Human A2BR (Homo sapiens, UniProt P29275); test: Human 2B Adenosine Receptor CHO-K1 cAMP functional assay; type: cell-based; conditions: cAMP antagonist functional assay, CHO-K1 cells stably expressing Human A2BR, NECA stimulation; read-out: Potency: A2BR KB
T1 sequence (P29275 1-332): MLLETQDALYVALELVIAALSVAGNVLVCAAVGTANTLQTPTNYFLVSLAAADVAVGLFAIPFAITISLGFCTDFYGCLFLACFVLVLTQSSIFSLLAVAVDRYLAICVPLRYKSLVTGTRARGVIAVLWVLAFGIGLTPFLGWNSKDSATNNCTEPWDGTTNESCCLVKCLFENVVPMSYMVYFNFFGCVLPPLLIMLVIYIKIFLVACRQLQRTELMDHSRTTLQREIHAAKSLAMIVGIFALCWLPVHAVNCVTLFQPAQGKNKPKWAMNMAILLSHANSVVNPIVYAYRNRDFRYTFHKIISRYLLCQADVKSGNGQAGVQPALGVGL
Protocol: Measurement of the Adenosine Receptor Activity of Compounds Using a Human 2B Adenosine Receptor CHO-K1 cAMP Functional Assay
CHO-K1 cells stably expressing Human Adenosine 2B Receptor (A2BR: Cat. No. M000329, GenScript) were purchased from GenScript Inc., Piscataway, N.J. 08854, USA.
The cAMP antagonist functional assay (Perkin Elmer) was performed on CHO-K1 cells stably expressing Human A2BR. 1×10^6 cells were seeded in T75 flasks and cultured at 37° C. and 5% CO2 overnight. 2,000-4,000 cells/well of stably-expressed A2bR CHO-K1 cells were then seeded to a white 384-well Opti plate followed by compound 1 incubation at various concentrations (ranging from 1 μM to 0 μM) at 37° C. for 1 hour.
(§1) A 1:2 serial dilution of NECA (Sigma Aldrich) from 1 μM to 0 μM was added to the cell stimulation mixture and incubated for 30 min at 37° C. After 30 min incubation, 5 μL of Ulight-anti-cAMP (1:150 dilution with conjugate and lysis buffer provided by Perkin Elmer) and 5 μL of Eu-cAMP tracer (1:50 dilution with conjugate and lysis buffer provided by Perkin Elmer) was added the cells and incubated for an hour. FRET signal was detected with an Envision multilabel plate reader (Perkin Elmer) loaded with 615 nm […] filters and 665 nm emission filters.
(§2) Data analysis was performed using on GraphPad Prism (version 7.02) to determine the KB of the test compounds.

Human A2AR = target: T2, Human A2AR (Homo sapiens, UniProt P29274); test: human 2A Adenosine Receptor (A2aR) CHO-TREx cAMP functional assay; type: cell-based; conditions: cAMP antagonist functional assay, CHO-T-REx cells expressing Human A2AR, NECA stimulation; read-out: Potency: A2AR KB
T2 construct: expressed in transfected cells; host or cells: CHO-T-REx cells (inducible expression)
T2 sequence (P29274 whole entry): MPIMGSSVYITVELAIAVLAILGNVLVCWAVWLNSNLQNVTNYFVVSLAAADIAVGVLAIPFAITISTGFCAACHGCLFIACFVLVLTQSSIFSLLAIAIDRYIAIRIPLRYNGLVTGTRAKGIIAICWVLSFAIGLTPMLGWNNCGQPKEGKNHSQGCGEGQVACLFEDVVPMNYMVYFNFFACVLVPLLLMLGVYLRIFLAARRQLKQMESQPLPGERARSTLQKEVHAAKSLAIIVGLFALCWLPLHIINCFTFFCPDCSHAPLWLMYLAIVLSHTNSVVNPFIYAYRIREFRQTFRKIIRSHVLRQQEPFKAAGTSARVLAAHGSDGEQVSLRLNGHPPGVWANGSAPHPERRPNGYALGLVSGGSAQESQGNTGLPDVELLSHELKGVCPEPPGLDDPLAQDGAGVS
Protocol: Measurement of the Adenosine Receptor Activity of Compounds using a human 2A Adenosine Receptor (A2aR) CHO-TREx cAMP Functional Assay
The cAMP antagonist functional assay (Perkin Elmer) was performed on CHO-T-REx cells induced to express Human A2AR. Cells were seeded to a white 384-well Opti plate at a density of 1,000 to 2,500 cells per well followed by incubation with various concentrations of compound (ranging from 1 μM to 0 μM) at 37° C. for 1 hour.
as §1, §2

Kb (Human A2BR) [nM] | Kb (Human A2AR) [nM] | Structure (SMILES)
< 100 | < 100 | CC(C)(O)c1cccc(Cn2cc(-c3nc(N)nc4c(F)c(F)ccc34)nn2)n1
< 100 | < 100 | COCCOCc1cccc(Cn2cc(-c3nc(N)nc4c(Cl)cccc34)nn2)n1
< 100 | < 100 | COc1cccc2c(-c3cn(Cc4cccc(COC[C@H]5CCCO5)n4)nn3)nc(N)nc12
100 to 1000 | < 100 | CCOc1cccc2c(-c3cn(Cc4cccc(C(C)(C)O)n4)nn3)nc(N)nc12
< 100 | < 100 | CC(C)(O)c1cccc(Cn2cc(-c3nc(N)nc4cc(C#N)ccc34)nn2)n1
< 100 | < 100 | COc1cccc2c(-c3cn(Cc4cccc(-c5cccc(C(=O)O)c5)n4)nn3)nc(N)nc12
< 100 | < 100 | COc1cccc2c(-c3cn(Cc4cccc(-c5ccc(C(=O)O)cc5)n4)nn3)nc(N)nc12
< 100 | < 100 | COc1cccc2c(-c3cn(Cc4cccc(N5CCCC5=O)n4)nn3)nc(N)nc12
< 100 | < 100 | COc1cccc2c(-c3cn(Cc4cccc(N5CCC(O)C5)n4)nn3)nc(N)nc12 (stereo not drawn)
100 to 1000 | < 100 | COc1cccc2c(-c3cn(Cc4cccc(-c5ccccc5C(=O)O)n4)nn3)nc(N)nc12
< 100 | < 100 | COc1cccc2c(-c3cn(Cc4cccc(C5(O)CCOCC5)n4)nn3)nc(N)nc12
< 100 | < 100 | COc1cccc2c(-c3cn(Cc4cccc(C5(O)COC5)n4)nn3)nc(N)nc12
100 to 1000 | < 100 | Nc1nc(-c2cn(Cc3cccc(C4(O)COC4)n3)nn2)c2cccc(F)c2n1
< 100 | < 100 | COc1ccc2c(-c3cn(Cc4cccc(C(C)(C)O)n4)nn3)nc(N)nc2c1
< 100 | < 100 | COc1cccc2c(-c3cn(Cc4cccc(C(C)(C)CO)n4)nn3)nc(N)nc12
< 100 | < 100 | CC(C)(CO)c1cccc(Cn2cc(-c3nc(N)nc4c(F)cccc34)nn2)n1
< 100 | < 100 | COc1c(F)ccc2c(-c3cn(Cc4cccc(C(C)(C)CO)n4)nn3)nc(N)nc12
< 100 | < 100 | COc1c(F)ccc2c(-c3cn(Cc4cccc(C5(O)COC5)n4)nn3)nc(N)nc12
< 100 | < 100 | COc1cccc2c(-c3cnn(Cc4cccc(C5(O)CCC5)n4)c3)nc(N)nc12
< 100 | < 100 | COc1cccc2c(-c3cn(Cc4cccc(C(C)(O)C(F)(F)F)n4)nn3)nc(N)nc12 (stereo not drawn)
< 100 | < 100 | COc1cccc2c(-c3cn(Cc4cccc([C@](C)(O)C(F)(F)F)n4)nn3)nc(N)nc12
< 100 | < 100 | COc1cccc2c(-c3cn(Cc4cccc([C@@](C)(O)C(F)(F)F)n4)nn3)nc(N)nc12
< 100 | < 100 | COc1cc(F)cc2c(-c3cn(Cc4cccc(C(C)(C)O)n4)nn3)nc(N)nc12
< 100 | < 100 | CCOC(=O)N1CCC(c2cccc(Cn3cc(-c4nc(N)nc5c(OC)cccc45)nn3)n2)CC1
< 100 | < 100 | COc1cccc2c(-c3cn(Cc4cccc(C(C)(C)O)n4)nn3)nc(NC(C)C)nc12
< 100 | < 100 | COc1cccc2c(-c3cn(Cc4cccc(C(C)(C)O)n4)nn3)nc(NC3CC3)nc12
< 100 | < 100 | COc1cccc2c(-c3cn(Cc4cccc(C(C)(C)O)n4)nn3)nc(N[C@H]3CCOC3)nc12
